# From ChEMBL document CHEMBL6092215, “A Prostate-Specific Membrane Antigen-Targeting Small Molecule-Drug Conjugate Strategy to Overcome the Hematological Toxicity of Olaparib” (J Med Chem, 2024)
# Calls of active or inactive are those of the source. No cut-off for these calls is given here.
# How the values were obtained:
# [1] = Toxicity in male BALB/c nude mouse xenografted with human 22Rv1 cells assessed as decrease in hemoglobin at 100 mg/kg administered via gavage by routine blood test; format: organism-based; conditions: in vivo, po
# [2] = test system: CWR22R; assay: Antitumor activity against human 22Rv1 cells xenografted in male BALB/c nude mouse assessed as tumor growth inhibition at 100 mg/kg administered via gavage relative to control; format: functional; conditions: 22Rv1, po, read-out: TGI
# [3] = Subacute toxicity in male ICR mouse assessed as decrease in body weight at 100 mg/kg, po administered via gavage for 30 days relative to control; format: organism-based; set-up: scale not given: the % may be the effect or the level left; conditions: in vivo, 720 h, time 30 day
# [4] = Antiproliferative activity against PSMA negative human RWPE-1 cells assessed as effect on cell viability incubated for 72 hrs by MTT assay; format: toxicity, cell-based; conditions: RWPE-1 cells (PSMA negative)
# [5] = Toxicity in male BALB/c nude mouse xenografted with human 22Rv1 cells assessed as decrease in granulocytes at 100 mg/kg administered via gavage by routine blood test; format: organism-based; conditions: in vivo, po
# [6] = test system: CWR22R; assay: Antiproliferative activity against human 22Rv1 cells assessed as reduction in cell viability at 125 uM in presence of DUPA; format: functional, cell-based
# [7] = Subacute toxicity in male ICR mouse assessed as decrease in neutrophil level at 100 mg/kg, po administered via gavage for 30 days by blood routine test relative to control; format: organism-based; set-up: scale not given: the % may be the effect or the level left; conditions: in vivo, 720 h, time 30 day
# [8] = test system: CWR22R; assay: Antiproliferative activity against human 22Rv1 cells with high PSMA expression assessed as effect on cell viability incubated for 72 hrs by MTT assay; format: functional, cell-based; conditions: 22Rv1, 72 h
# [9] = Toxicity in male BALB/c nude mouse xenografted with human 22Rv1 cells assessed as decrease in red blood cells at 100 mg/kg administered via gavage by routine blood test; format: organism-based; conditions: in vivo, po
# [10] = Subacute toxicity in male ICR mouse assessed as decrease in hematocrit level at 100 mg/kg, po administered via gavage for 30 days by blood routine test relative to control; format: organism-based; set-up: scale not given: the % may be the effect or the level left; conditions: in vivo, 720 h, time 30 day
# [11] = Toxicity in male BALB/c nude mouse xenografted with human 22Rv1 cells assessed as decrease in body weight at 100 mg/kg administered via gavage; format: organism-based; conditions: in vivo, po
# [12] = Subacute toxicity in male ICR mouse assessed as decrease in WBC level at 100 mg/kg, po administered via gavage for 30 days by blood routine test relative to control; format: organism-based; set-up: scale not given: the % may be the effect or the level left; conditions: in vivo, 720 h, time 30 day
# [13] = Drug uptake in PSMA negative human PC-3 cells at 10 uM measured after 1 to 6 hrs by LC-MS/MS analysis; format: ADME, cell-based; conditions: pc-3, 10 µM, time 1-6 hrs
# [14] = Drug uptake in PSMA positive human 22Rv1 cells at 10 uM measured after 1 to 6 hrs by LC-MS/MS analysis; format: ADME, cell-based; conditions: cwr22r, time 1-6 hrs
# [15] = Subacute toxicity in male ICR mouse assessed as decrease in lymphocytes level at 100 mg/kg, po administered via gavage for 30 days by blood routine test relative to control; format: organism-based; set-up: scale not given: the % may be the effect or the level left; conditions: in vivo, 720 h, time 30 day
# [16] = Subacute toxicity in male ICR mouse assessed as decrease in red blood cells at 100 mg/kg, po administered via gavage for 30 days by blood routine test relative to control; format: organism-based; set-up: scale not given: the % may be the effect or the level left; conditions: in vivo, 720 h, time 30 day
# [17] = test system: CWR22R; assay: Induction of DNA damage in human 22Rv1 cells assessed as increase in number of gamma-H2AX foci at 100 uM incubated for 12 hrs by DAPI staining based immunofluorescence analysis; format: functional, cell-based
# [18] = test system: PC-3; assay: Antiproliferative activity against PSMA negative human PC-3 cells assessed as effect on cell viability incubated for 72 hrs by MTT assay; format: functional
# [19] = test system: LNCaP; assay: Antiproliferative activity against human LNCaP cells with high PSMA expression assessed as effect on cell viability incubated for 72 hrs by MTT assay; format: functional, cell-based
# [20] = test system: CWR22R; assay: Antitumor activity against human 22Rv1 cells xenografted in male BALB/c nude mouse at 100 mg/kg administered via gavage; format: functional, organism-based
# [21] = Toxicity in male BALB/c nude mouse xenografted with human 22Rv1 cells assessed as decrease in lymphocytes at 100 mg/kg administered via gavage by routine blood test; format: organism-based; conditions: in vivo, po
# [22] = Subacute toxicity in male ICR mouse assessed as decrease in hemoglobin level at 100 mg/kg, po administered via gavage for 30 days by blood routine test relative to control; format: organism-based; set-up: scale not given: the % may be the effect or the level left; conditions: in vivo, 720 h, time 30 day
# [23] = Volume of distribution in Sprague-Dawley rat at 5 mg/kg, iv measured after 24 hrs by UPLC-MS/MS analysis; format: ADME, organism-based; conditions: in vivo
# [24] = Drug uptake in PSMA positive human 22Rv1 cells at 10 uM measured after 1 to 6 hrs in presence of PSMA ligand DUPA by LC-MS/MS analysis; format: ADME, cell-based; conditions: cwr22r, time 1-6 hrs
# [25] = test system: CWR22R; assay: Antitumor activity against human 22Rv1 cells xenografted in male BALB/c nude mouse at 175 mg/kg administered via gavage; format: functional, organism-based
# [26] = Tmax in Sprague-Dawley rat at 100 mg/kg, po measured after 24 hrs by UPLC-MS/MS analysis; format: ADME, organism-based; conditions: in vivo
# [27] = Subacute toxicity in male ICR mouse assessed as decrease in red blood cells at 175 mg/kg, po administered via gavage for 30 days by blood routine test; format: organism-based; conditions: in vivo, 720 h, time 30 day
# [28] = Oral bioavailability in Sprague-Dawley rat at 100 mg/kg measured after 24 hrs by UPLC-MS/MS analysis; format: ADME, organism-based; conditions: in vivo
# [29] = Half-life in Sprague-Dawley rat at 5 mg/kg, iv measured after 24 hrs by UPLC-MS/MS analysis; format: ADME, organism-based; conditions: in vivo
# [30] = C0 in Sprague-Dawley rat at 5 mg/kg, iv measured after 24 hrs by UPLC-MS/MS analysis; format: ADME, organism-based; conditions: in vivo
# [31] = Subacute toxicity in male ICR mouse assessed as decrease in hemoglobin at 175 mg/kg, po administered via gavage for 30 days by blood routine test; format: organism-based; conditions: in vivo, 720 h, time 30 day
# [32] = biological target: Poly [ADP-ribose] polymerase 1 (Homo sapiens, UniProt P09874); assay: Inhibition of PARP1 (unknown origin) by biotinylated NAD+-based luminescence assay
# [33] = Subacute toxicity in male ICR mouse assessed as decrease in WBC at 175 mg/kg, po administered via gavage for 30 days by blood routine test; format: organism-based; conditions: in vivo, 720 h, time 30 day
# [34] = Half-life in Sprague-Dawley rat at 100 mg/kg, po measured after 24 hrs by UPLC-MS/MS analysis; format: ADME, organism-based; conditions: in vivo
# [35] = AUC (0 to t) in Sprague-Dawley rat at 5 mg/kg, iv measured after 24 hrs by UPLC-MS/MS analysis; format: ADME, organism-based; conditions: in vivo
# [36] = AUC (0 to infinity) in Sprague-Dawley rat at 100 mg/kg, po measured after 24 hrs by UPLC-MS/MS analysis; format: ADME, organism-based; conditions: in vivo
# [37] = AUC (0 to infinity) in Sprague-Dawley rat at 5 mg/kg, iv measured after 24 hrs by UPLC-MS/MS analysis; format: ADME, organism-based; conditions: in vivo
# [38] = test system: CWR22R; assay: Antitumor activity against human 22Rv1 cells xenografted in male BALB/c nude mouse assessed as tumor growth inhibition at 175 mg/kg administered via gavage relative to control; format: functional; conditions: 22Rv1, po, read-out: TGI
# [39] = test system: CWR22R; assay: Induction of apoptosis in human 22Rv1 cells assessed as increase in cleaved caspase-3 expression at 100 uM incubated for 72 hrs by Western blot analysis; format: functional, cell-based
# [40] = Subacute toxicity in male ICR mouse assessed as decrease in neutrophils at 175 mg/kg, po administered via gavage for 30 days by blood routine test; format: organism-based; conditions: in vivo, 720 h, time 30 day
# [41] = Subacute toxicity in male ICR mouse assessed as decrease in lymphocytes at 175 mg/kg, po administered via gavage for 30 days by blood routine test; format: organism-based; conditions: in vivo, 720 h, time 30 day
# [42] = Subacute toxicity in male ICR mouse assessed as decrease in hematocrit at 175 mg/kg, po administered via gavage for 30 days by blood routine test; format: organism-based; conditions: in vivo, 720 h, time 30 day
# [43] = AUC (0 to t) in Sprague-Dawley rat at 100 mg/kg, po measured after 24 hrs by UPLC-MS/MS analysis; format: ADME, organism-based; conditions: in vivo
# [44] = test system: CWR22R; assay: Induction of DNA damage in human 22Rv1 cells assessed as increase in number of gamma-H2AX foci incubated for 12 hrs by DAPI staining based immunofluorescence analysis; format: functional, cell-based; conditions: dose 50-200 µM
# [45] = Subacute toxicity in male ICR mouse assessed as decrease in body weight at 175 mg/kg, po administered via gavage for 30 days; format: organism-based; conditions: in vivo, 720 h, time 30 day
# [46] = Cmax in Sprague-Dawley rat at 100 mg/kg, po measured after 24 hrs by UPLC-MS/MS analysis; format: ADME, organism-based; conditions: in vivo
# [47] = Toxicity in male BALB/c nude mouse xenografted with human 22Rv1 cells assessed as decrease in body weight at 175 mg/kg administered via gavage; format: organism-based; conditions: in vivo, po
# [48] = Clearance in Sprague-Dawley rat at 5 mg/kg, iv measured after 24 hrs by UPLC-MS/MS analysis; format: ADME, organism-based; conditions: in vivo
# Poly [ADP-ribose] polymerase 1, sequence (P09874 whole entry): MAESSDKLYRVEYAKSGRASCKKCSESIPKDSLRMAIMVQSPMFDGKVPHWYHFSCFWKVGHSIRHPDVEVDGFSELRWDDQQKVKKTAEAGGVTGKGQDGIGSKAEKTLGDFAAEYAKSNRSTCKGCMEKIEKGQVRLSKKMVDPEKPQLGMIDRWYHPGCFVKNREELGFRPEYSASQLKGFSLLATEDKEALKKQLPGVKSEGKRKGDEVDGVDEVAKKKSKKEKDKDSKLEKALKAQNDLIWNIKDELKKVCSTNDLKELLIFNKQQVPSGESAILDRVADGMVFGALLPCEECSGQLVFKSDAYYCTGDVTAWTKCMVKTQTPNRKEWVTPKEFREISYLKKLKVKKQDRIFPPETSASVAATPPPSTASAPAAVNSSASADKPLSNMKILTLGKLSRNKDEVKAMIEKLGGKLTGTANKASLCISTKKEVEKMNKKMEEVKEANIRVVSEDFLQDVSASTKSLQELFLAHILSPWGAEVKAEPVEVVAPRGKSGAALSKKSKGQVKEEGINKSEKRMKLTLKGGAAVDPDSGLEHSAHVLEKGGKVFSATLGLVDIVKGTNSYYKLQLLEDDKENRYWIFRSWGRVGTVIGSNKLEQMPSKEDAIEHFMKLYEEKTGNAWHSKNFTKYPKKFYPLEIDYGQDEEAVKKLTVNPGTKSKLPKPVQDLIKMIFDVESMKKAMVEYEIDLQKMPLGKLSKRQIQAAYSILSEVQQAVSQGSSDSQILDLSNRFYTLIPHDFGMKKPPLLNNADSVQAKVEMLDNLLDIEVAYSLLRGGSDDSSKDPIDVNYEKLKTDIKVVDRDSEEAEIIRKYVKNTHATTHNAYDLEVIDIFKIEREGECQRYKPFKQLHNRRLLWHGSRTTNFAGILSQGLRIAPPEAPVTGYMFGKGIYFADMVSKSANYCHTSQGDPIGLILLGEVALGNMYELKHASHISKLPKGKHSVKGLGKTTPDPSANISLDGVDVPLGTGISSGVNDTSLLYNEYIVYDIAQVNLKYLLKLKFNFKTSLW
smiles,measurement,setting,value
O=C(c1cc(Cc2n[nH]c(=O)c3ccccc23)ccc1F)N1CCN(C(=O)C2CC2)CC1 [OLAPARIB],Activity,[1],Toxic
same,inhibition in vivo at 100 mg/kg,[2],61%
same,Activity,[3],8%
same,CC50 at 72 h,[4],85.5 µM
same,Activity,[5],Toxic
same,Activity,[6],Active; Drug Mode Of Action Appears To Be Independent Of Binding To Psma Receptor
same,Activity,[7],10.4%
same,IC50,[8],61.6 µM
same,Activity,[9],Toxic
same,Activity,[10],12.82%
same,Activity,[11],Non-toxic
same,Activity,[12],28.12%
same,Drug uptake,[13],Active
same,Drug uptake,[14],Active
same,Activity,[15],32.71%
same,Activity,[16],15.73%
same,Activity,[17],Active
same,CC50,[18],91.5 µM
same,IC50,[19],56.5 µM
same,Activity,[20],Active
same,Activity,[21],Toxic
same,Activity,[22],11.69%
O=C(O)CC[C@H](NC(=O)N[C@@H](CCCCNC(=O)CCC(=O)N1CCN(C(=O)c2cc(Cc3n[nH]c(=O)c4ccccc34)ccc2F)CC1)C(=O)O)C(=O)O,Vd,[23],0.391 L/kg
same,CC50 at 72 h,[4],> 1000 µM
same,Drug uptake,[24],Not_active
same,Activity,[6],Not active; Drug Mode Of Action Appears To Be Via Binding To Psma Receptor
same,Activity,[25],Active
same,Tmax,[26],60 min
same,IC50,[8],133 µM
same,Activity,[27],Non-toxic
same,bioavailability,[28],11%
same,half-life,[29],22.7 min
same,C0 at 24 h,[30],12800 ng/mL
same,Activity,[31],Non-toxic
same,IC50,[32],0.0019 µM
same,Activity,[33],Non-toxic
same,Drug uptake,[14],Active
same,half-life,[34],54.8 min
same,AUC(0-t) at 24 h,[35],7300 ng·h/mL
same,AUC(0-inf),[36],16500 ng·h/mL
same,AUC(0-inf),[37],7460 ng·h/mL
same,inhibition in vivo at 175 mg/kg,[38],69%
same,Activity,[39],Active; Similar To Olaparib-Treated Group
same,Activity,[40],Non-toxic
same,Activity,[41],Non-toxic
same,Activity,[42],Non-toxic
same,AUC(0-t) at 24 h,[43],16300 ng·h/mL
same,Activity,[44],Dose-dependent-effect
same,CC50,[18],> 1000 µM
same,Activity,[45],Non-toxic
same,IC50,[19],93.9 µM
same,Cmax,[46],5260 ng/mL
same,Activity,[47],Non-toxic
same,clearance,[48],12 mL/min/kg
